Data: patent EP1531159B1, “Peptide useful for diagnosis and therapy of tumors” (Deutsches Krebsforschungszentrum Stiftung des öffentlichen …, priority 2003, dated 2005)

Experiments:
[1] = test system: human prostate tumor (DU-145); assay: Organ distribution of intravenously injected 131I-labeled DU-Sigi1 in tumor-bearing mice; assay type: in vivo, male nu/nu mice; conditions: i.v., 28 mio cpm/mouse, 15 min and 45 min postinjection
Description: The peptide DU-Sigi1 (FRPNRAQDYNTN) was prepared by chemical synthesis and labeled with ^131I. ^131I labeled peptide DU-Sigi1 (FRPNRAQDYNTN) (28 mio cpm/mouse) was intravenously injected into male nu/nu mice, which subcutaneously carried a human prostate tumor (DU-145). 15 min. and 45 min, respectively, postinjection the mice were sacrificed. The organs were removed, weighed and the radioactivity was determined with a gamma counter. […] The high blood volumn might be due to the degradation of the peptide by serum peptidases and proteases.

[2] = test system: human tumor cell lines (DU-145, PC-3, IMR5-75, MDA-MB-435, SW-1736, NPA-87); assay: Binding of 125I-DU-Sigi1 to human tumor cell lines
Description: (§1) The peptide DU-Sigi1 (FRPNRAQDYNTN) was prepared by chemical synthesis and labelled with ^125I. For in vitro studies, 200,000 cells (DU-145, human prostate tumor cell line; PC-3, human prostate cell line; HUVEC, human primary endothelial cells, IMR5-75, human neuroblastoma cell line, MDA-MB-435, human breast cancer cell line, SW-1736, human thyroid cancer cell line, NPA-87, human thyroid cancer cell line) were seeded into 6-well plates and cultivated for 24 hours. Then, the medium was replaced by fresh medium (without FCS) and for the plates with competitor, unlabelled peptide was added (10^-4 M) and preincubated for 30 min. Then, ^125I-labelled peptide was added to the cell culture (1-2 mio cpm/well) and incubated for 10 min. The cells were collected and washed for three times with 1 ml PBS per washing. Then, the cells were lysed with 0.3 M NaOH. Radioactivity of the lysed cells was determined with a gamma counter and radioactivity as percent applied dose per 1 million cells was calculated.

[3] = test system: HUVEC, human primary endothelial cells; assay: Binding of 125I-DU-Sigi1 to primary endothelial cells; conditions: ^125I-labelled peptide, 1-2 mio cpm/well, 10 min incubation
Description: as §1

[4] = test system: PC-3 cells (prostate tumor cell line); assay: Competition assay of 125I-DU-Sigi1 with unlabeled DU-Sigi1 on PC-3 cells; assay type: binding, human; conditions: data not shown
[5] = test system: PC-3 cells (prostate tumor cell line); assay: Binding kinetics of 125I-DU-Sigi1 on PC-3 cells; design: species or system human; conditions: data not shown
[6] = test system: DU-145 prostate tumor cells; assay: Competition assay of 125I-DU-Sigi1 with unlabeled competitor on DU-145 cells; assay type: binding, human; conditions: for inhibition of binding of ^125I-DU-Sigi1: 10 min at 37°C
Description: The peptide DU-Sigi1 (FRPNRAQDYNTN) was prepared by chemical synthesis and labeled with ^125I. 200,000 DU-145 cells (human prostate tumor cell line) were seeded into 6-well plates and cultivated for 24 hours. Then, the medium was replaced by fresh medium (without FCS). Different competitor concentrations (unlabeled DU-Sigi1) were added to the medium 30 min before the ^125I-labeled peptide was added to the wells (1-2 mio cpm/well) and incubated for 10 min at 37°C.[…], After the incubation time the cells were collected and washed for three times with 1 ml PBS per washing. Then, the cells were lysed with 0.3 M NaOH. Radioactivity of the lysed cells was determined with a gamma counter and radioactivity as percent applied dose per 1 million cells was calculated. […] The ID50 is approx. 50 µM.

[7] = test system: DU-145 prostate tumor cells; assay: Binding kinetics of 125I-DU-Sigi1 on DU-145 cells; design: species or system human
Description: The peptide DU-Sigi1 (FRPNRAQDYNTN) was prepared by chemical synthesis and labelled with ^125I. 200,000 DU-145 cells (human prostate tumor cell line) were seeded into 6-well plates and cultivated for 24 hours. Then, the medium was replaced by fresh medium (without FCS). ^125I-labelled peptide was added to the cell culture (1-2 mio cpm/well) and incubated for times from 1 min to 4 h. After the incubation time the cells were collected and washed for three times with 1 ml PBS per washing. Then, the cells were lysed with 0.3 M NaOH. Radioactivity of the lysed cells was determined with a gamma counter and radioactivity as percent applied dose per 1 million cells was calculated. It could be shown that the binding of DU-Sigi1 is rapid and the highest binding rate occurs after 5 min. Then the amount of bound peptide decreases and reaches a basal level of about 1.5 % applied dose/1 mio cells.

FRPNRAQDYNTN [DU-Sigi1]
accumulation in tumor versus other organs [1]: accumulates in the tumor to a higher extent than in the other organs, with the exeption of the kidney
binding of labelled peptide to tumor cells ([2]; ^125I-labelled peptide, 1-2 mio cpm/well, 10 min incubation): specifically binds to the various tumor cells
competitive inhibition of binding ([2]; unlabelled peptide 10^-4 M, preincubated for 30 min): up to 95%
binding of labelled peptide to primary endothelial cells [3]: not the primary endothelial cells
competition compared with DU-145 cells [4]: The same results were obtained
binding kinetics compared with DU-145 cells [5]: The same results were obtained
ID50 ([6]; unlabeled DU-Sigi1 as competitor of ^125I-DU-Sigi1): approx. 50 µM
inhibition of binding of ^125I-DU-Sigi1 ([6]; unlabeled DU-Sigi1 concentration 10^-4, added 30 min before): more than 95%
inhibition of binding of ^125I-DU-Sigi1 ([6]; unlabeled DU-Sigi1 concentration 10^-5, added 30 min before): more than 95%
basal level of bound peptide ([7]; after the binding maximum, incubation up to 4 h): about 1.5 % applied dose/1 mio cells
time of highest binding rate ([7]; incubation times from 1 min to 4 h): 5 min

octreotide [reference compound]
competition with ^125I-DU-Sigi1 binding ([6]; unlabeled competitor, same concentration, data not shown): No competition
